From patent publication US20250380696A1, “METHOD FOR CONTROLLING UNDESIRED PLANTS AND PROMOTING GROWTH OF USEFUL PLANTS” (ISHIHARA SANGYO KAISHA, LTD., priority 2022, published 2025)

Legend:
Assay type in all cases: in vivo
[1] = tested on: Italian ryegrass (Lolium multiflorum); assay: (5) Herbicidal effect test, pot, spray at 3.0 to 3.3 leaf stage; settings: 6th day after spraying
Description: (§1) [formula] • X: growth inhibition rate when treated with α (g/ha) of compound A, • Y: growth inhibition rate when treated with β (g/ha) of compound B, • E: growth inhibition rate expected when treated with α (g/ha) of compound A and β (g/ha) of compound B (expected value).
Upland soil was put in a 1/1,000,000 hectare pot, and seeds of Italian ryegrass (Lolium multiflorum) were sown. When the Italian ryegrass reached 3.0 to 3.3 leaf stage, a water-based suspension containing tiafenacil as the active ingredient, prepared by a conventional method for preparing a water-based suspension, and a wettable powder containing metribuzin as the active ingredient (tradename: SENCOR wettable powder, manufactured by Bayer Crop Science), water dispersible granules containing pyroxasulfone as the active ingredient (tradename: Sakura, manufactured by Bayer Crop Science) or a wettable powder containing tri-allate as the active ingredient, prepared by a conventional method for preparing a wettable powder, were diluted with water (in an amount corresponding to 200 liter per hectare) containing 0.5 vol % of an agricultural spreader (tradename: Destiny HC, manufactured by Winfield Solutions, LLC.) and sprayed by a small spray gun (model: W-101-132G, manufactured by ANEST IWATA Corporation). On the 6th day after spraying, the state of growth of the Italian ryegrass was visually observed, and the growth inhibition rate (%) was obtained in accordance with the evaluation standards described in the above (1) herbicidal effect test, and the results are shown in Table 5. Further, the expected value of the growth inhibition rate (%) was calculated in accordance with the Colby's formula described in the above (1) herbicidal effect test, and the results are also shown in Table 5.

[2] = tested on: waterhemp (Amaranthus tuberculatus); assay: (13) Herbicidal effect test, pot, spray at 5.0 to 8.0 leaf stage; settings: 4th day after spraying
Description: as §1
Upland soil was put in a 1/1,000,000 hectare pot, and seeds of waterhemp (Amaranthus tuberculatus) were sown. When the waterhemp reached 5.0 to 8.0 leaf stage, a water-based suspension containing tiafenacil as the active ingredient, prepared by a conventional method for preparing a water-based suspension, and a wettable powder containing tri-allate as the active ingredient, prepared by a conventional method for preparing a wettable powder, an emulsifiable concentrate containing pethoxamid as the active ingredient (tradename: Successor 600, manufactured by Stähler Suisse SA) or an emulsifiable concentrate containing dimethenamid-P as the active ingredient (tradename: Fieldstar P emulsifiable concentrate, manufactured by BASF) were diluted with water (in an amount corresponding to 200 liter per hectare) containing 0.5 vol % of an agricultural spreader (tradename: Destiny HC, manufactured by Winfield Solutions, LLC.) and sprayed by a small spray gun (model: W-101-132G, manufactured by ANEST IWATA Corporation). On the 4th day after spraying, the state of growth of the waterhemp was visually observed, and the growth inhibition rate (%) was obtained in accordance with the evaluation standards described in the above (1) herbicidal effect test, and the results are shown in Table 13. Further, the expected value of the growth inhibition rate (%) was calculated in accordance with the Colby's formula described in the above (1) herbicidal effect test, and the results are also shown in Table 13.

[3] = tested on: horseweed (Conyza canadensis); assay: (14) Herbicidal effect test, pot, spray at diameter of 12 to 17 cm; settings: 6th day after spraying
Description: as §1
Upland soil was put in a 1/1,000,000 hectare pot, and seeds of horseweed (Conyza canadensis) were sown. When the horseweed reached a diameter of 12 to 17 cm, a water-based suspension containing tiafenacil as the active ingredient, prepared by a conventional method for preparing a water-based suspension, and an emulsifiable concentrate containing S-metolachlor as the active ingredient (tradename: Dual Gold, manufactured by Syngenta), a wettable powder containing metribuzin as the active ingredient (tradename: SENCOR wettable powder, manufactured by Bayer Crop Science) or water dispersible granules containing pyroxasulfone as the active ingredient (tradename: Sakura, manufactured by Bayer Crop Science) were diluted with water (in an amount corresponding to 200 liter per hectare) containing 0.5 vol % of an agricultural spreader (tradename: Destiny HC, manufactured by Winfield Solutions, LLC.) and sprayed by a small spray gun (model: W-101-132G, manufactured by ANEST IWATA Corporation). On the 6th day after spraying, the state of growth of the horseweed was visually observed, and the growth inhibition rate (%) was obtained in accordance with the evaluation standards described in the above (1) herbicidal effect test, and the results are shown in Table 14. Further, the expected value of the growth inhibition rate (%) was calculated in accordance with the Colby's formula described in the above (1) herbicidal effect test, and the results are also shown in Table 14.

[4] = tested on: waterhemp (Amaranthus tuberculatus); assay: (12) Herbicidal effect test, pot, spray at 6.0 to 8.5 leaf stage; settings: 13th day after spraying
Description: as §1
Upland soil was put in a 1/1,000,000 hectare pot, and seeds of waterhemp (Amaranthus tuberculatus) were sown. When waterhemp reached 6.0 to 8.5 leaf stage, a water-based suspension containing tiafenacil as the active ingredient, prepared by a conventional method for preparing a water-based suspension, and an emulsifiable concentrate containing S-metolachlor as the active ingredient (tradename: Dual Gold, manufactured by Syngenta), a wettable powder containing metribuzin as the active ingredient (tradename: SENCOR wettable powder, manufactured by Bayer Crop Science) or water dispersible granules containing pyroxasulfone as the active ingredient (tradename: Sakura, manufactured by Bayer Crop Science) were diluted with water (in an amount corresponding to 200 liter per hectare) containing 0.5 vol % of an agricultural spreader (tradename: Destiny HC, manufactured by Winfield Solutions, LLC.) and sprayed by a small spray gun (model: W-101-132G, manufactured by ANEST IWATA Corporation). On the 13th day after spraying, the state of growth of the waterhemp was visually observed, and the growth inhibition rate (%) was obtained in accordance with the evaluation standards described in the above (1) herbicidal effect test, and the results are shown in Table 12. Further, the expected value of the growth inhibition rate (%) was calculated in accordance with the Colby's formula described in the above (1) herbicidal effect test, and the results are also shown in Table 12.

SMILES: CC(C)N(C(=O)SCC(Cl)=C(Cl)Cl)C(C)C [tri-allate]
- inhibition at 75 g/ha ([1]; Lolium multiflorum, Dose 75 g/ha, read-out: Growth inhibition rate (%) Measured value): 0%
- inhibition at 150 g/ha ([1]; Lolium multiflorum, Dose 150 g/ha, read-out: Growth inhibition rate (%) Measured value): 0%
- inhibition at 625 g/ha ([1]; Lolium multiflorum, Dose 625 g/ha, read-out: Growth inhibition rate (%) Measured value): 2%
- inhibition at 1250 g/ha ([1]; Lolium multiflorum, Dose 1250 g/ha, read-out: Growth inhibition rate (%) Measured value): 5%
- inhibition at 75 g/ha ([2]; Amaranthus tuberculatus, Dose 75 g/ha, read-out: Growth inhibition rate (%) Measured value): 0%
- inhibition at 625 g/ha ([2]; Amaranthus tuberculatus, Dose 625 g/ha, read-out: Growth inhibition rate (%) Measured value): 0%
- inhibition at 1250 g/ha ([2]; Amaranthus tuberculatus, Dose 1250 g/ha, read-out: Growth inhibition rate (%) Measured value): 0%

SMILES: Cn1nc(C(F)(F)F)c(CS(=O)(=O)C2=NOC(C)(C)C2)c1OC(F)F [pyroxasulfone]
- inhibition at 7.5 g/ha ([1]; Lolium multiflorum, Dose 7.5 g/ha, read-out: Growth inhibition rate (%) Measured value): 0%
- inhibition at 15 g/ha ([1]; Lolium multiflorum, Dose 15 g/ha, read-out: Growth inhibition rate (%) Measured value): 3%
- inhibition at 62.5 g/ha ([1]; Lolium multiflorum, Dose 62.5 g/ha, read-out: Growth inhibition rate (%) Measured value): 8%
- inhibition at 125 g/ha ([1]; Lolium multiflorum, Dose 125 g/ha, read-out: Growth inhibition rate (%) Measured value): 17%
- inhibition at 250 g/ha ([1]; Lolium multiflorum, Dose 250 g/ha, read-out: Growth inhibition rate (%) Measured value): 23%
- inhibition at 7.5 g/ha ([3]; Erigeron canadensis, Dose 7.5 g/ha, read-out: Growth inhibition rate (%) Measured value): 0%
- inhibition at 250 g/ha ([3]; Erigeron canadensis, Dose 250 g/ha, read-out: Growth inhibition rate (%) Measured value): 0%
- inhibition at 500 g/ha ([3]; Erigeron canadensis, Dose 500 g/ha, read-out: Growth inhibition rate (%) Measured value): 0%
- inhibition at 7.5 g/ha ([4]; Amaranthus tuberculatus, Dose 7.5 g/ha, read-out: Growth inhibition rate (%) Measured value): 10%
- inhibition at 250 g/ha ([4]; Amaranthus tuberculatus, Dose 250 g/ha, read-out: Growth inhibition rate (%) Measured value): 17%
- inhibition at 500 g/ha ([4]; Amaranthus tuberculatus, Dose 500 g/ha, read-out: Growth inhibition rate (%) Measured value): 13%

SMILES: CCOCCN(C(=O)CCl)C(=C(C)C)c1ccccc1 [pethoxamid]
- Growth inhibition rate (%) Measured value ([2]; Dose 93.8 g/ha): 0%
- Growth inhibition rate (%) Measured value ([2]; Dose 375 g/ha): 0%
- Growth inhibition rate (%) Measured value ([2]; Dose 750 g/ha): 0%

SMILES: COC(=O)CCNC(=O)C(C)Sc1cc(-n2c(=O)cc(C(F)(F)F)n(C)c2=O)c(F)cc1Cl (stereo not drawn) [tiafenacil]
- Growth inhibition rate (%) Measured value ([1]; Dose 3.13 g/ha): 17%
- Growth inhibition rate (%) Measured value ([1]; Dose 6.25 g/ha): 33%
- Growth inhibition rate (%) Measured value ([1]; Dose 12.5 g/ha): 60%
- Growth inhibition rate (%) Measured value ([2]; Dose 6.25 g/ha): 73%
- Growth inhibition rate (%) Measured value ([3]; Dose 6.25 g/ha): 23%
- Growth inhibition rate (%) Measured value ([4]; Dose 6.25 g/ha): 33%

SMILES: CSc1nnc(C(C)(C)C)c(=O)n1N [metribuzin]
- inhibition at 137.5 g/ha ([1]; Lolium multiflorum, Dose 137.5 g/ha, read-out: Growth inhibition rate (%) Measured value): 20%
- inhibition at 275 g/ha ([1]; Lolium multiflorum, Dose 275 g/ha, read-out: Growth inhibition rate (%) Measured value): 30%
- inhibition at 550 g/ha ([1]; Lolium multiflorum, Dose 550 g/ha, read-out: Growth inhibition rate (%) Measured value): 30%
- inhibition at 9.38 g/ha ([3]; Erigeron canadensis, Dose 9.38 g/ha, read-out: Growth inhibition rate (%) Measured value): 0%
- inhibition at 550 g/ha ([3]; Erigeron canadensis, Dose 550 g/ha, read-out: Growth inhibition rate (%) Measured value): 5%
- inhibition at 1100 g/ha ([3]; Erigeron canadensis, Dose 1100 g/ha, read-out: Growth inhibition rate (%) Measured value): 5%
- inhibition at 9.38 g/ha ([4]; Amaranthus tuberculatus, Dose 9.38 g/ha, read-out: Growth inhibition rate (%) Measured value): 5%
- inhibition at 550 g/ha ([4]; Amaranthus tuberculatus, Dose 550 g/ha, read-out: Growth inhibition rate (%) Measured value): 37%
- inhibition at 1100 g/ha ([4]; Amaranthus tuberculatus, Dose 1100 g/ha, read-out: Growth inhibition rate (%) Measured value): 50%

SMILES: COC[C@H](C)N(C(=O)CCl)c1c(C)csc1C [dimethenamid-P]
- Growth inhibition rate (%) Measured value ([2]; Dose 60 g/ha): 0%
- Growth inhibition rate (%) Measured value ([2]; Dose 375 g/ha): 0%
- Growth inhibition rate (%) Measured value ([2]; Dose 750 g/ha): 0%

SMILES: CCc1cccc(C)c1N(C(=O)CCl)[C@@H](C)COC [S-metolachlor]
- Growth inhibition rate (%) Measured value ([3]; Dose 7.5 g/ha): 0%
- Growth inhibition rate (%) Measured value ([3]; Dose 375 g/ha): 0%
- Growth inhibition rate (%) Measured value ([3]; Dose 750 g/ha): 0%
- Growth inhibition rate (%) Measured value ([4]; Dose 7.5 g/ha): 0%
- Growth inhibition rate (%) Measured value ([4]; Dose 375 g/ha): 0%
- Growth inhibition rate (%) Measured value ([4]; Dose 750 g/ha): 0%
